Laboratory results: PMC12077799, “Fragment-based drug discovery for transthyretin kinetic stabilisers using a novel capillary zone electrophoresis method” (PLOS One, 2025)

Target: T1, Human transthyretin (TTR) (Homo sapiens, UniProt P02766)
T1 construct: purchased SCIPAC (Sittingbourne, Kent, UK) P171-1
Experiment: Co-crystallisation of TTR-ligand complex, X-ray hit confirmation
Assay type: binding
Settings: fragment seen in ligand-omitted difference density at >= 2σ in one or both binding sites; full or partial density
Method: Crystals were grown by vapor diffusion using a published crystallisation cocktail (100 mM HEPES pH 7.5, 200 mM CaCl2, 28% v/v PEG400) at 21 °C [29]. The hanging drop contained 1 μL of crystallisation cocktail, 1 μL of diluted ligand and 1 μL of TTR protein solution (85 μM). […] Crystals were harvested and flash cooled in a N2 cryostream or dipped into liquid ethane without cryoprotectant. Data was collected at Diamond Light Source (Oxon, UK) beamline I24, I04 or I04-1 (Pilatus 6M or ADSC Q315) or the European Synchrotron Radiation Facility (ESRF, Grenoble, France) beamline ID29 (Pilatus 6M-F) or in-house (Bruker X8 Diffractometer with APEXII CCD detector). Crystal unit cell was initially indexed by software MOSFLM [30] and LABELIT [31] within the EDNA [32] automatic data processing workflow. Diffraction image integration was performed by XDS [33] and reflection intensities were scaled by SCALA [34] or by PROTEUM2 if collected in-house. Phases were obtained by molecular replacement method using PHASER [35], 1DVQ from the Protein Data Bank (PDB) was used as the search model. Atomic positions of the initial model were refined by REFMAC5 [36]. Model building and ligand fitting was completed using COOT [37]. Model graphics were generated using CCP4MG [38]. Crystallographic statistics of all structures can be found in S4 Table.

## c1ccc2c(-c3cn[nH]c3)ccnc2c1 [SFL001535, 4-(3H-pyrazol-4-yl)quinoline]
  Confirmed by X-ray: Yes 9H7I
